Assay results reported in patent publication US20070027181A1, “Benzylisoquinoline derivative- or bisbenzylisoquinoline derivative-containing psychotropic agent, analgesic and/or antiphlogistic, and health food” (EDUCATION CENTER OF TRADITIONAL, priority 2004, published 2007).

How the values were obtained:
Assay type in all cases: in vivo, Male ICR mice
[1] = test system: mice; assay: histamine-induced paw edema test; conditions: 100 mg/kg i.p. 30 minutes before histamine 10 μg; 12 minutes after histamine
Experimental: (§1) In the following Examples, all extracts and drugs used were dissolved in physiological saline before use for i.p. administration and the dose was 0.1 ml of physiological saline per 10 g of mouse body weight in either case. All extracts and drugs were suspended in physiological saline containing 1% sodium carboxymethylcellulose before use for oral administration and the dose was 0.1 ml of 1% sodium carboxymethylcellulose-containing physiological saline suspension per 10 g of mouse body weight in either case. Male ICR mice (Japan SLC) having a body weight of 25 to 30 g were used in the tests below unless otherwise stated, and were fed in advance at a room temperature of 23±1° C. and a relative humidity of 55±5% in the environment of a cycle of 12-hour-light from 7 a.m. to 7 p.m. and 12-hour-dark from 7 p.m. to 7 a.m. for 3 to 5 days. The mice were allowed to have water and feed freely.
Six mice per group were used. […] The thickness of the right hind paw was measured immediately before histamine administration and 12 minutes after histamine administration. The thickness immediately before administration was subtracted from the thickness of the paw after histamine administration, and this was adopted as a thickness of paw edema. As apparent from TABLE 18, paw edema due to histamine was suppressed by neferine. […]

[2] = test system: mice; assay: tail flick test; conditions: 15 minutes after administration, cut off time 10 seconds
Experimental: as §1, with “The mice were allowed to have water and feed freely.” left out
A tail flick test is a method in which, when radiant heat stimulation is locally added to a part of a tail 1 to 2 cm away from the tail root part of a mouse, a reaction of raising a tail as a provisional pain reaction is manifested, and anti-invasion action is determined by utilizing this reaction.
Seven to nine mice per group were used. […] The reaction that a mouse raised a tail upon addition of radiant heat was regarded as a provisional pain reaction, and a time until its manifestation (latency time) was measured. […]

[3] = test system: mice; assay: acetic acid-induced writhing test
Experimental: as §1
An acetic acid-induced writhing test is a method wherein analgesic action of a compound is determined utilizing this. The number of this writhing is compared between a physiological saline-administered control group and a test drug-administered group, and suppression of the number of writhing by the test drug is investigated thereby assessing its analgesic action.
Seven to ten mice per group were used. Neferine hydrochloride was subcutaneously administered to mice at their back at a dose of 5 mg/kg, 10 mg/kg, 25 mg/kg, 50 mg/kg or 100 mg/kg and, after 15 minutes, a 0.6% by weight solution of acetic acid in water was intraperitoneally administered at 0.1 mL/10 g body weight. The number of writhing was counted every ten minutes for 30 minutes from immediately after acetic acid administration (0 to 10 min, 10 to 20 min, 20 to 30 min). In addition, the total number of writhing for 30 minutes from immediately after acetic acid administration was also obtained. Regarding the resulting measurements, a significant difference test was performed by a Dunnet multiple comparison test method.
According to the same manner as in acetic acid-induced writhing test-1 except that acetic acid was intraperitoneally administered 30 minutes after subcutaneous administration of neferine in the aforementioned acetic acid-induced writhing test-1, an acetic acid-induced writhing test was performed. However, the dose of neferine was only 50 mg/kg.
According to the same manner as in the acetic acid-induced writhing test-1 except that acetic acid was intraperitoneally administered 30 minutes after oral administration of neferine in the aforementioned acetic acid-induced writhing test-1, an acetic acid-induced writhing test was performed. However, five to six mice per group were used. The dose of neferine was 10 mg/kg and 50 mg/kg. Further, aspirin was used as a positive control drug. The dose of aspirin was 50 mg/kg.
According to the same manner as in acetic acid-induced writhing test-1 except that armepavine was used in place of neferine in the aforementioned acetic acid-induced writhing test-1, an acetic acid-induced writhing test was performed. However, the dose of armepavine was 5 mg/kg and 10 mg/kg.
According to the same manner as in acetic acid-induced writhing test-1 except that O-methylarmepavine was used in place of neferine in the aforementioned acetic acid-induced writhing test-1, an acetic acid-induced writhing test was performed. However, the dose of O-methylarmepavine was 5 mg/kg and 10 mg/kg.

[4] = 5 mg/kg s.c. 15 minutes before acetic acid
[5] = 10 mg/kg oral 30 minutes before acetic acid
[6] = 10 mg/kg s.c. 15 minutes before acetic acid
[7] = 25 mg/kg s.c. 15 minutes before acetic acid
[8] = 50 mg/kg oral 30 minutes before acetic acid
[9] = 50 mg/kg s.c. 15 minutes before acetic acid
[10] = 50 mg/kg s.c. 30 minutes before acetic acid
[11] = 100 mg/kg s.c. 15 minutes before acetic acid

## COc1ccc(C[C@@H]2c3cc(Oc4cc(C[C@@H]5c6cc(OC)c(OC)cc6CCN5C)ccc4O)c(OC)cc3CCN2C)cc1 [neferine]
[1]
  Thickness of paw edema (mm): 0.32 ± 0.03 mm
[2]; 50 mg/kg i.p.
  % MPE: 5.0 ± 2.30%
[2]; 100 mg/kg i.p.
  % MPE: 15.6 ± 2.89 %
[3]; [4]
  Number of writhing 0-10 min.: 21.8 ± 2.30
  Number of writhing 0-30 min.: 51.0 ± 5.34
  Number of writhing 10-20 min.: 19.0 ± 2.14
  Number of writhing 20-30 min.: 10.7 ± 2.04
[3]; [5]
  Number of writhing 0-10 min.: 7.6 ± 1.63
  Number of writhing 0-30 min.: 23.3 ± 1.52
  Number of writhing 10-20 min.: 9.2 ± 1.35
  Number of writhing 20-30 min.: 6.5 ± 2.50
[3]; [6]
  Number of writhing 0-10 min.: 12.1 ± 1.91
  Number of writhing 0-30 min.: 31.6 ± 6.15
  Number of writhing 10-20 min.: 11.6 ± 2.66
  Number of writhing 20-30 min.: 7.9 ± 3.06
[3]; [7]
  Number of writhing 0-10 min.: 8.9 ± 2.22
  Number of writhing 0-30 min.: 19.4 ± 3.48
  Number of writhing 10-20 min.: 6.9 ± 1.90
  Number of writhing 20-30 min.: 3.6 ± 1.19
[3]; [8]
  Number of writhing 0-10 min.: 2.4 ± 1.94
  Number of writhing 0-30 min.: 8.0 ± 3.08
  Number of writhing 10-20 min.: 4.0 ± 1.30
  Number of writhing 20-30 min.: 1.6 ± 0.81
[3]; [9]
  Number of writhing 0-10 min.: 5.7 ± 1.38
  Number of writhing 0-30 min.: 19.7 ± 3.56
  Number of writhing 10-20 min.: 5.7 ± 1.38
  Number of writhing 20-30 min.: 5.3 ± 2.15
[3]; [10]
  Number of writhing 0-10 min.: 10.6 ± 2.53
  Number of writhing 0-30 min.: 27.4 ± 3.73
  Number of writhing 10-20 min.: 10.3 ± 1.90
  Number of writhing 20-30 min.: 6.6 ± 1.53
[3]; [11]
  Number of writhing 0-10 min.: 4.0 ± 1.22
  Number of writhing 0-30 min.: 14.9 ± 2.16
  Number of writhing 10-20 min.: 6.7 ± 1.31
  Number of writhing 20-30 min.: 4.2 ± 1.02
[3]; 15 minute-before subcutaneous administration
  dose showing significant analgesic action against the negative control group: ≥ 10 mg/kg
[3]; oral administration 30 minutes before acetic acid
  analgesic action compared with aspirin: strong analgesic action as compared with aspirin
